Values quoted from earlier work in patent publication US8354566B2, “Lubricating oil additive and lubricating oil composition containing same” (Chevron Oronite Company LLC, priority 2010, dated 2013).

System: estrogen-inducible strain of yeast
Conditions: compared among alkylphenols and with 17β-estradiol

Compound: CC(C)(C)CC(C)(C)c1ccc(O)cc1 [4-tert-octylphenol, 4-(1,1,3,3-Tetramethyl-butyl)-phenol]
- estrogenic activity: highest activity
